Data from patent US11203600B2 (Denali Therapeutics Inc., priority 2017, dated 2021).

Each molecule was assayed against GST-hRIPK1 (8-327) (Homo sapiens (Human), UniProt Q13546) (assay: Fluorescent Polarization Binding (FP Binding) assay, RIPK1). Conditions: 10 nM GST-hRIPK1 (8-327), 5 nM fluorescent-labeled ligand, RT, 30 min, mean of at least two independent experiments.
How it was run: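 Compound displacement of 5 nM labelled ligand from 10 nM GST-hRIPK1 (8-327) was read as FP (531/595 nm) after 30 min at RT. Buffer: HEPES pH 7.5, NaCl, MgCl2, CHAPS, DTT, Pluronic; 1% DMSO final. IC50s were averaged over at least two independent runs.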

GST-hRIPK1 (8-327), sequence (Q13546 8-327): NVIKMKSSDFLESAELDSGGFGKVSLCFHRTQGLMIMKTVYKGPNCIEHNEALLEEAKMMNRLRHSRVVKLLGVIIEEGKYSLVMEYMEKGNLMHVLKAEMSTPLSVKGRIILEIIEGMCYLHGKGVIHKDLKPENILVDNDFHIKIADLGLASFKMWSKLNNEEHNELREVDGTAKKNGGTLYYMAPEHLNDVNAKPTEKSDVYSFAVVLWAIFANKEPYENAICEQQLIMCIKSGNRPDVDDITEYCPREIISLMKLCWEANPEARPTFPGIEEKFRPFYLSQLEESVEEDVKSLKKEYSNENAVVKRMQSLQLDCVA

Compared with `COCC(C)(C)C(=O)N1CCOc2c(C#N)cncc2C1` [Example 150, 4-(3-methoxy-2,2-dimethyl-propanoyl)-3,5-dihydro-2H-pyrido[3,4-f][1,4]oxazepine-9-carbonitrile], `CC(C)(Cl)C(=O)N1CCOc2c(C#N)cncc2C1` [Example 158, 4-(2-chloro-2-methyl-propanoyl)-3,5-dihydro-2H-pyrido[3,4-f][1,4]oxazepine-9-carbonitrile] is lower in IC50: 100 to 1000 nM for the first, 0.1 to 100 nM for the second. The second is the more potent here.

`N#Cc1cncc2c1OCCN(C(=O)C1(F)CCN(c3ncc(F)cc3F)CC1)C2` [Example 192, 4-[1-(3,5-difluoro-2-pyridyl)-4-fluoro-piperidine-4-carbonyl]-3,5-dihydro-2H-pyrido[3,4-f][1,4]oxazepine-9-carbonitrile] and `N#Cc1cncc2c1OCCN(C(=O)C1(F)CCN(c3ncc(Cl)cn3)CC1)C2` [Example 164, 4-[1-(5-chloropyrimidin-2-yl)-4-fluoro-piperidine-4-carbonyl]-3,5-dihydro-2H-pyrido[3,4-f][1,4]oxazepine-9-carbonitrile] fall in the same range of IC50: 0.1 to 100 nM for the first, 0.1 to 100 nM for the second.

First: CC1CN(c2ncc(F)cn2)CCC1C(=O)N1CCOc2c(C#N)cncc2C1 (centres unmarked) [Example 187, 4-[1-(5-fluoropyrimidin-2-yl)-3-methyl-piperidine-4-carbonyl]-3,5-dihydro-2H-pyrido[3,4-f][1,4]oxazepine-9-carbonitrile]
Second: N#Cc1cncc2c1OCCN(C(=O)C13CC(C1)C3)C2 [Example 44, 4-(bicyclo[1.1.1]pentane-3-carbonyl)-3,5-dihydro-2H-pyrido[3,4-f][1,4]oxazepine-9-carbonitrile]
The IC50 of the first is lower: 0.1 to 100 nM for the first, > 1000 nM for the second. The first is the more potent here.

First: CCC(C)(C)C(=O)N1CCCc2ccccc2C1 [Example 4, 2,2-dimethyl-1-(1,3,4,5-tetrahydro-2-benzazepin-2-yl)butan-1-one]
Second: CCC(C)(CC#N)C(=O)N1CCOc2c(C#N)cncc2C1 (centres unmarked) [Example 74, 4-[2-(cyanomethyl)-2-methyl-butanoyl]-3,5-dihydro-2H-pyrido[3,4-f][1,4]oxazepine-9-carbonitrile]
The IC50 of the first is higher: 100 to 1000 nM for the first, 0.1 to 100 nM for the second. The second is the more potent here.

For `CC1(C(=O)N2CCOc3ccccc3C2)CCN(c2ncc(F)cn2)CC1` [Example 9, 3,5-dihydro-2H-1,4-benzoxazepin-4-yl-[1-(5-fluoropyrimidin-2-yl)-4-methyl-4-piperidyl]methanone], the IC50 was 0.1 to 100 nM.

Same assay, conditions: GST-hRIPK1 (8-327), mean of at least two independent experiments

`COC1(C(=O)N2CCOc3c(C#N)cncc3C2)CCN(c2ncc(F)c(C3CC3)n2)CC1` [Example 233, 4-[1-(4-cyclopropyl-5-fluoro-pyrimidin-2-yl)-4-methoxy-piperidine-4-carbonyl]-3,5-dihydro-2H-pyrido[3,4-f][1,4]oxazepine-9-carbonitrile] and `N#Cc1cncc2c1OCCN(C(=O)C1(F)CCN(c3ncc(F)c(C4CC4)n3)CC1)C2` [Example 201, 4-[1-(4-cyclopropyl-5-fluoro-pyrimidin-2-yl)-4-fluoro-piperidine-4-carbonyl]-3,5-dihydro-2H-pyrido[3,4-f][1,4]oxazepine-9-carbonitrile] fall in the same range of IC50: 0.1 to 100 nM for the first, 0.1 to 100 nM for the second.

First: N#Cc1cncc2c1OCCN(C(=O)C1CCN(c3ncnn4ccnc34)CC1(F)F)C2 (centres unmarked) [Example 218, 4-(3,3-difluoro-1-imidazo[2,1-f][1,2,41triazin-4-yl-piperidine-4-carbonyl)-3,5-dihydro-2H-pyrido[3,4-f][1,4]oxazepine-9-carbonitrile)]
Second: N#Cc1cncc2c1OCCN(C(=O)C1CCN(c3nccn4ncnc34)CC1F)C2 (single isomer, unassigned) [Example 302, 4-[3-Fluoro-1-([1,2,4]triazolo[1,5-a]pyrazin-8-yl)piperidine-4-carbonyl]-3,5-dihydro-2H-pyrido[3,4-f][1,4]oxazepine-9-carbonitrile]
The IC50 of the first is higher: 100 to 1000 nM for the first, 0.1 to 100 nM for the second. The second is the more potent here.

`N#Cc1cncc2c1OCCN(C(=O)C1CCN(c3ncc(F)cn3)C[C@@H]1F)C2` (stereo partly drawn) [Example 242, 4-[(3,4)-trans-3-fluoro-1-(5-fluoropyrimidin-2-yl)piperidine-4-carbonyl]-3,5-dihydro-2H-pyrido[3,4-f][1,4]oxazepine-9-carbonitrile] gave an IC50 of 0.1 to 100 nM.
